Holding throughout (experiment): Kinase assay, binding constants (Kd), kinase-tagged T7 phage, qPCR
Assay [1] concerns the target FGFR3 (Homo sapiens (Human), UniProt P22607). On the procedure: (§1) Kinase-tagged T7 phage strains were prepared in an E. coli host derived from the BL21 strain. E. coli were grown to log-phase and infected with T7 phage and incubated with shaking at 32° C. until lysis. The lysates were centrifuged and filtered to remove cell debris. Streptavidin-coated magnetic beads were treated with biotinylated small molecule ligands for 30 minutes at room temperature to generate affinity resins for kinase assays. The liganded beads were blocked with excess biotin and washed with blocking buffer SeaBlock (Pierce), […], 1 mM DTT to remove unbound ligand and to reduce non-specific binding.
(§2) Test compounds were prepared as 111λ stocks in 10000 DMS0. Kds were determined using an 11-point 3-fold compound dilution series with three DMSO control points. […] The compounds were then diluted directly into the assays such that the final concentration of DMSO was 0.9%. All reactions performed in polypropylene 384-well plate. Each was a final volume of 0.02 ml. […] The beads were then re-suspended in elution buffer (1×PBS, 0.05% Tween […] non-biotinylated affinity ligand) and incubated at room temperature with shaking for 30 minutes. The kinase concentration in the eluates was measured by qPCR.
(§3) Binding constants were calculated with a standard dose-response curve using the Hill equation: […]
(§4) The Hill Slope was set to −1. Curves were fitted using a non-linear least square fit with the Levenberg-Marquardt algorithm.

Assay [2] addresses FGFR4 (Homo sapiens (Human), UniProt P22455). On the procedure:
as §1, §2, §3, §4

For assay [3], the target named is FGFR3 (V555M) (Homo sapiens (Human), UniProt P22607, V555M). The settings on record: V555M mutant. On the procedure:
as §1, §2, §3, §4

The target in assay [4] is FGFR1 (Homo sapiens (Human), UniProt P11362). On the procedure: as §1, §2, §3, §4
Chain of FGFR1 (P11362 22-822): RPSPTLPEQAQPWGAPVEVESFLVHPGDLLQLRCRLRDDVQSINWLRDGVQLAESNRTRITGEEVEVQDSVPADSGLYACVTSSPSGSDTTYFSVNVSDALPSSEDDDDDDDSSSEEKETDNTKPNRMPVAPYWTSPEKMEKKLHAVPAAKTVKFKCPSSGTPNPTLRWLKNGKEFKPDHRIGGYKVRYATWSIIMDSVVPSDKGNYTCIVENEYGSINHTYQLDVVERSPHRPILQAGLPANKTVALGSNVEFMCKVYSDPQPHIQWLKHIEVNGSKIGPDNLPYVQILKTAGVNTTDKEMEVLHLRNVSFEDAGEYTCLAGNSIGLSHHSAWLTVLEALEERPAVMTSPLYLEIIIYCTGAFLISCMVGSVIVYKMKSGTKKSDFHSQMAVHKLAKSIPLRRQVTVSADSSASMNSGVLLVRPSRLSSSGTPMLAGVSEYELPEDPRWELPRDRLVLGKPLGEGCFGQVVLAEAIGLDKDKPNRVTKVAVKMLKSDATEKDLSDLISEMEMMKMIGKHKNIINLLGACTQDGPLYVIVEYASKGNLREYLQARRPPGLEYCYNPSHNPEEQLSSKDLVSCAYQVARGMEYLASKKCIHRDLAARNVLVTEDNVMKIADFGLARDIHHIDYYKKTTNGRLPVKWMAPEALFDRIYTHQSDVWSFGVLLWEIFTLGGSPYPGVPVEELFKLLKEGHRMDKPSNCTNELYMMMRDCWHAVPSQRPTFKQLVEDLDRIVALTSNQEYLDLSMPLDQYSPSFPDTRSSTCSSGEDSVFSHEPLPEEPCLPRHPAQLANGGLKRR
In assay [5] the target is FGFR2 (Homo sapiens (Human), UniProt P21802). On the procedure:
as §1, §2, §3, §4

Chain of FGFR2 (P21802 22-821): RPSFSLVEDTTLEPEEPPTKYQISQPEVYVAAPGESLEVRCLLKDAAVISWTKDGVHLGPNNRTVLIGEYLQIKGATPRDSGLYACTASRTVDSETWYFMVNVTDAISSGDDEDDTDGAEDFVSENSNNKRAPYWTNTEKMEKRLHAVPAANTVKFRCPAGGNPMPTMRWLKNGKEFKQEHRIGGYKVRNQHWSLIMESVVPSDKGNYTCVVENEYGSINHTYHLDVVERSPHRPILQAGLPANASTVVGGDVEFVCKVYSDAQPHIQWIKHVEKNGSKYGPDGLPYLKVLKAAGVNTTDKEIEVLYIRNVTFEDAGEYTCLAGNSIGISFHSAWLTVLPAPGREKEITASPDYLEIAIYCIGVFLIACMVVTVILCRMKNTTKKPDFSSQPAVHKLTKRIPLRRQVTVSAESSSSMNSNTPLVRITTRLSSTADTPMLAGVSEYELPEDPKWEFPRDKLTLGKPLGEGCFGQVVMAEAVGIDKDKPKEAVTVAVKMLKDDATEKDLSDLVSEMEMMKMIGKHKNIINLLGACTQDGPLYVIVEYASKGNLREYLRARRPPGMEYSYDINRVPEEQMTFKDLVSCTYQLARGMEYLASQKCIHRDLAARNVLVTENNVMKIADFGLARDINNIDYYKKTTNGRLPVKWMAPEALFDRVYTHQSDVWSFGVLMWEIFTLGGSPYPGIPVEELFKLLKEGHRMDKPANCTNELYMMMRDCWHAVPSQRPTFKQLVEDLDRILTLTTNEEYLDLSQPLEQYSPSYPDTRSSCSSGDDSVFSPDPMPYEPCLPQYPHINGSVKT
Chain of FGFR3 (P22607 23-806): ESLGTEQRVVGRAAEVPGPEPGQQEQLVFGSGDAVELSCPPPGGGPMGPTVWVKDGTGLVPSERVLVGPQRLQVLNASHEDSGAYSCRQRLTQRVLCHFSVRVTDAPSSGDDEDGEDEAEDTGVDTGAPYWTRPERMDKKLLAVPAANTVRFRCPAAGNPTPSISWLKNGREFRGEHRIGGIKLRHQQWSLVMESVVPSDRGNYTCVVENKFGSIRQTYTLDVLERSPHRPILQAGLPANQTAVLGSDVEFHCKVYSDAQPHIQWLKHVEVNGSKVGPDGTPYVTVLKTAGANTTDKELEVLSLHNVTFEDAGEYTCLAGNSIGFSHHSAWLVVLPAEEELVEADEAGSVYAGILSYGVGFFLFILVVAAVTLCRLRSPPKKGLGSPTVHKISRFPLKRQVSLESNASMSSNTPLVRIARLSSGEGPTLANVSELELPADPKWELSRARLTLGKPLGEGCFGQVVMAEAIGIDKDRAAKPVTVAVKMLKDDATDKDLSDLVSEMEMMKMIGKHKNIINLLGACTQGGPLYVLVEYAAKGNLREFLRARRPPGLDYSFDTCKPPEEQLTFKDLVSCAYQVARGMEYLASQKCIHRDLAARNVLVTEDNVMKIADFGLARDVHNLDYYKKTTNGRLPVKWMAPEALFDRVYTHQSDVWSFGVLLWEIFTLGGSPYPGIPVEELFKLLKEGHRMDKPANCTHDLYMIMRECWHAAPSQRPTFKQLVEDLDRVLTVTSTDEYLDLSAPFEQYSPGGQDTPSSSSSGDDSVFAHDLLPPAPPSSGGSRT
Chain of FGFR4 (P22455 22-802): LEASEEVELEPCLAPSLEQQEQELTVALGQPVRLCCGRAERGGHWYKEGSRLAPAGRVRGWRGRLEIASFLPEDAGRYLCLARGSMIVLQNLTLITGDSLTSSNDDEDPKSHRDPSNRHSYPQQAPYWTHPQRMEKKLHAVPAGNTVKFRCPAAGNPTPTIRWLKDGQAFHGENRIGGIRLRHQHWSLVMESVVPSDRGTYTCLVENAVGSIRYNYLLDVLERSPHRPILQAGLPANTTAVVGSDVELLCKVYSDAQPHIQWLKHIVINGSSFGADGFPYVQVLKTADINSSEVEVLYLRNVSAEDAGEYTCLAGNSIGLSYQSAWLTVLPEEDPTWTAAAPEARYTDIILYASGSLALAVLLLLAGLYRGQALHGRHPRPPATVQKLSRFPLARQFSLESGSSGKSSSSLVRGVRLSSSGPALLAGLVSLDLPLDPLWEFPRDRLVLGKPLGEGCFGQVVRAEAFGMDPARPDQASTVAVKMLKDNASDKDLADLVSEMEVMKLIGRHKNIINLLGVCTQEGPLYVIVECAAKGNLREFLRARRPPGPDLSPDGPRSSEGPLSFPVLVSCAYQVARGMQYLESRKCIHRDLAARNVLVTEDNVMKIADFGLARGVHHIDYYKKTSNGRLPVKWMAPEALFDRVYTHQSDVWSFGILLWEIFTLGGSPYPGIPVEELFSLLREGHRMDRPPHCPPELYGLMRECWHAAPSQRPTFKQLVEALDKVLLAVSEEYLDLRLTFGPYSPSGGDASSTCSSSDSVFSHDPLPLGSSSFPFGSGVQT
Chain of FGFR3 (V555M) (P22607 23-806 V555M): as the sequence (P22607 23-806) above, with V533M counted along it

Consider `C[C@@H](Oc1ccc2[nH]nc(-c3ccc(N4CC5(CNC5)C4)nc3)c2c1)c1c(Cl)cncc1Cl` [Example 45, 3-[6-(2,6-diazaspiro[3.3]heptan-2-yl)-3-pyridyl]-5-[(1R)-1-(3,5-dichloro-4-pyridyl)ethoxy]-1H-indazole], for which the Kd in assay [1], in assay [2], in assay [3], in assay [4] and in assay [5] was 1 to 20 nM each time.
Regarding `C[C@@H](Oc1ccc2[nH]nc(-c3cnc(Cl)nc3)c2c1)c1c(Cl)cncc1Cl` [Example 59, 3-(2-Chloropyrimidin-5-yl)-5-[(1R)-1-(3,5-dichloro-4-pyridyl)ethoxy]-1H-indazole], the Kd (as a rule, the concentration at which binding is half-saturated) in assay [1] is 20 to 100 nM; in assay [2] it was 20 to 100 nM; in assay [3], 20 to 100 nM; in assay [4] it was 20 to 100 nM; in assay [5], 100 to 300 nM.
`C[C@@H](Oc1ccc2[nH]nc(-c3cnc(N4CCCNCC4)nc3)c2c1)c1c(Cl)cncc1Cl` [Example 61, 3-[2-(1,4-Diazepan-1-yl)pyrimidin-5-yl]-5-[(1R)-1-(3,5-dichloro-4-pyridyl)ethoxy]-1H-indazole]: the Kd was 1 to 20 nM in assay [1]; 1 to 20 nM in assay [2]; 1 to 20 nM in assay [3]; 1 to 20 nM in assay [4]; 20 to 100 nM in assay [5].
In the case of `C[C@@H](Oc1ccc2[nH]nc(-c3cnn(C4CCN(S(C)(=O)=O)CC4)c3)c2c1)c1c(Cl)cncc1Cl` [Example 66, 5-[(1R)-1-(3,5-dichloro-4-pyridyl)ethoxy]-3-[1-(1-methylsulfonyl-4-piperidyl)pyrazol-4-yl]-1H-indazole], the Kd in assay [1], in assay [2], in assay [3], in assay [4] and in assay [5] was 1 to 20 nM throughout.
In the case of `C[C@@H](Oc1ccc2[nH]nc(-c3ccc(C4CCNCC4)nc3)c2c1)c1c(Cl)cncc1Cl` [Example 69, 5-[(1R)-1-(3,5-dichloro-4-pyridyl)ethoxy]-3-[6-(4-piperidyl)-3-pyridyl]-1H-indazole], the Kd in assay [1], in assay [2], in assay [3], in assay [4] and in assay [5] was 1 to 20 nM each time.
As to `C[C@@H](Oc1ccc2[nH]nc(-c3ccc(N4CC5(CCN(S(C)(=O)=O)CC5)OC4=O)nc3)c2c1)c1c(Cl)cncc1Cl` [Example 76, 3-[5-[5-[(1R)-1-(3,5-dichloro-4-pyridyl)ethoxy]-1H-indazol-3-yl]-2-pyridyl]-8-methylsulfonyl-1-oxa-3,8-diazaspiro[4.5]decan-2-one], the Kd in assay [1] was in the range of 1 to 20 nM; in assay [2], 1 to 20 nM; in assay [3] it was 1 to 20 nM; in assay [4] it was 20 to 100 nM; in assay [5] it was 20 to 100 nM.
Consider `C[C@@H](Oc1ccc2[nH]nc(-c3cnn(C4CCN(C(=O)CN(C)C)CC4)c3)c2c1)c1c(Cl)cncc1Cl` [Example 81, 1-[4-[4-[5-[(1R)-1-(3,5-dichloro-4-pyridyl)ethoxy]-1H-indazol-3-yl]pyrazol-1-yl]-1-piperidyl]-2-(dimethylamino)ethanone], for which the Kd in assay [1], in assay [2], in assay [3], in assay [4] and in assay [5] was 1 to 20 nM throughout.
For `CC(C)N1CCC(n2cc(-c3n[nH]c4ccc(O[C@H](C)c5c(Cl)cncc5Cl)cc34)cn2)CC1` [Example 83, 5-[(1R)-1-(3,5-dichloro-4-pyridyl)ethoxy]-3-[1-(1-isopropyl-4-piperidyl)pyrazol-4-yl]-1H-indazole], the Kd in assay [1] was in the range of 1 to 20 nM; in assay [2], 20 to 100 nM; in assay [3], 1 to 20 nM; in assay [4] it was 1 to 20 nM; in assay [5] it was 1 to 20 nM.
As to `CC(C)N1CC[C@@H](n2cc(-c3n[nH]c4ccc(O[C@H](C)c5c(Cl)cncc5Cl)cc34)cn2)C1` [Example 84, 5-[(1R)-1-(3,5-dichloro-4-pyridyl)ethoxy]-3-[(1R)-1-(1-isopropylpyrrolidin-3-yl)pyrazol-4-yl]-1H-indazole], the Kd was 1 to 20 nM in assay [1]; 20 to 100 nM in assay [2]; 1 to 20 nM in assay [3]; 1 to 20 nM in assay [4]; 1 to 20 nM in assay [5].
For the compound `C[C@@H](Oc1ccc2[nH]nc(-c3cnn(C4CNC4)c3)c2c1)c1c(Cl)cncc1Cl` [Example 85, 3-[1-(azetidin-3-yl)pyrazol-4-yl]-5-[(1R)-1-(3,5-dichloro-4-pyridyl)ethoxy]-1H-indazole], the Kd in assay [1], in assay [2], in assay [3], in assay [4] and in assay [5] was 1 to 20 nM each time.
For `CC(C)N1CC(n2cc(-c3n[nH]c4ccc(O[C@H](C)c5c(Cl)cncc5Cl)cc34)cn2)C1` [Example 86, 5-[(1R)-1-(3,5-dichloro-4-pyridyl)ethoxy]-3-[1-(1-isopropylazetidin-3-yl)pyrazol-4-yl]-1H-indazole], the Kd in assay [1], in assay [2], in assay [3], in assay [4] and in assay [5] was 1 to 20 nM each time.
For the compound `CCN1CC[C@H](n2cc(-c3n[nH]c4ccc(O[C@H](C)c5c(Cl)cncc5Cl)cc34)cn2)C1` [Example 89, 5-[(1R)-1-(3,5-dichloro-4-pyridyl)ethoxy]-3-[1-[(3S)-1-ethylpyrrolidin-3-yl]pyrazol-4-yl]-1H-indazole], the Kd fell in the range of 1 to 20 nM in assay [1]; 20 to 100 nM in assay [2]; 1 to 20 nM in assay [3]; 1 to 20 nM in assay [4]; 1 to 20 nM in assay [5].
In the case of `C[C@@H](Oc1ccc2[nH]nc(-c3ccc(N4CC5(CCN5)C4)nc3)c2c1)c1c(Cl)cncc1Cl` [Example 99, 3-[6-(1,6-diazaspiro[3.3]heptan-6-yl)-3-pyridyl]-5-[(1R)-1-(3,5-dichloro-4-pyridyl)ethoxy]-1H-indazole], the Kd in assay [1], in assay [2], in assay [3], in assay [4] and in assay [5] was 1 to 20 nM throughout.
Turning to `Cc1cnnc(C)c1[C@@H](C)Oc1ccc2[nH]nc(-c3cnc(N4CCCC4)c(C#N)c3)c2c1` [Example 173, 5-[5-[(1R)-1-(3,5-dimethylpyridazin-4-yl)ethoxy]-1H-indazol-3-yl]-2-pyrrolidin-1-yl-pyridine-3-carbonitrile], the Kd in assay [1] lay within 20 to 100 nM; in assay [2] it was 1 to 20 nM; in assay [3] it was 20 to 100 nM; in assay [4], 100 to 300 nM.
`CCN1C2CC1CN(c1ccc(-c3n[nH]c4cc(OC)c(O[C@H](C)c5c(C)cnnc5C)cc34)cn1)C2` [Example 213, 3-(5-(5-((R)-1-(3,5-dimethylpyridazin-4-yl)ethoxy)-6-methoxy-1H-indazol-3-yl)pyridin-2-yl)-6-ethyl-3,6-diazabicyclo[3.1.1]heptane]: the Kd in assay [1], in assay [2], in assay [3] and in assay [4] was 1 to 20 nM throughout.
Turning to `C[C@@H](Oc1ccc2[nH]nc(-c3ccc(N4CC5(CCOC5)C4)nc3)c2c1)c1c(Cl)cnnc1Cl` [Example 223, (R)-2-(5-(5-(1-(3,5-dichloropyridazin-4-yl)ethoxy)-1H-indazol-3-yl)pyridin-2-yl)-6-oxa-2-azaspiro[3.4]octane], the equilibrium dissociation constant (Kd) in assay [1] was in the range of 20 to 100 nM; in assay [3], 20 to 100 nM; in assay [5], 100 to 300 nM.

Source of the values: patent US20240109865A1, “INDAZOLE COMPOUNDS AS KINASE INHIBITORS” (TYRA BIOSCIENCES, INC., priority 2020, published 2024).
